The source of these data is PubChem BioAssay AID1871 (NMMLSC, 2009).

Calls of active or inactive are those of the source. No rule for the calls is given here.

The target in one test is Regulator of G-protein signaling 7 (Homo sapiens) (UniProt P49802). As to the kind of experiment: potency of compounds altering RGS7-Galphao association – biochemical, multiplexed bead flow cytometry, dose response (AID 1871). Conditions: bead-based flow cytometry, RGS7-Galphao binding. For orientation: In flow cytometry, cells or beads pass a laser one at a time.
Regulator of G-protein signaling 7 (Homo sapiens), sequence (P49802 whole entry, looked up): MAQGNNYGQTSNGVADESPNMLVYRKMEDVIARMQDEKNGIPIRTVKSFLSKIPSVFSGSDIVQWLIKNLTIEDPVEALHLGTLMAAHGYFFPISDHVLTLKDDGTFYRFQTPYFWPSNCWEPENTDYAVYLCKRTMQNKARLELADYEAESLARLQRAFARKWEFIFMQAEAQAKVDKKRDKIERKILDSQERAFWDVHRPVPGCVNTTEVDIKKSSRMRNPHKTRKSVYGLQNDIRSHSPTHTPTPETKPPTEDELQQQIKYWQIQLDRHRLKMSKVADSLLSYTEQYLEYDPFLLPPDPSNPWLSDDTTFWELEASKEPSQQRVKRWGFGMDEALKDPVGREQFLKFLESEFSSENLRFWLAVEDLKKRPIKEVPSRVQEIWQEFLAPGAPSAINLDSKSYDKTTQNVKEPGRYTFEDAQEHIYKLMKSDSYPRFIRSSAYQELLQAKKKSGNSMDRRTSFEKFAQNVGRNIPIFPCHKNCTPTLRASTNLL
A word on the EC50: it is the concentration giving half of the maximal effect. On to `CCOC(=O)N=Nc1c(O)n(C)c2ccccc12`, for which the EC50 is > 30 µM (inactive).

For `CN(C)[C@@H]1C(=O)C(C(=O)NCN2CCCC2)=C(O)[C@@]2(O)C(=O)C3=C(O)c4c(O)cccc4[C@@](C)(O)C3CC12` (stereo partly drawn), the EC50 is 4.35 µM.

Take `CCOC(=O)C1=C(C)NC(C)=C(C(=O)OCCNC(=O)c2cccnc2)C1c1cccc([N+](=O)[O-])c1` (stereo not drawn): the EC50 was > 30 µM (inactive).

As to `O=C1CCCC2=C1C(c1cccs1)n1ncnc1N2` (stereo not drawn), the EC50 was > 30 µM (inactive).

Turning to `CCOC(=O)/C(C(=O)Nc1ccccc1Cl)=C1/NC(C)(C)Cc2ccccc21`, the EC50 was > 30 µM (inactive).

As to `COc1ccc(Br)cc1/C=N/Nc1cccc(C(=O)O)c1`, the EC50 is > 30 µM (inactive).

`O=c1[nH]c(=S)n(Cc2ccco2)c(O)c1C=NCc1cccs1`: the EC50 was > 30 µM (inactive).

In the case of `CC(C)Sc1nc2ccc(N3C(=O)C4CCCCC4C3=O)cc2s1` (stereo not drawn), the EC50 is > 30 µM (inactive).

Regarding `NS(=O)(=O)c1ccc(N/N=C/c2ccc(O)c(O)c2O)c([N+](=O)[O-])c1`, the EC50 is 1.95 µM.

Staying with this test, now noted: bead-based flow cytometry, RGS7-Galphao binding; measured here: Ki for RGS7-Galphao.
A word on the Ki: it is a measure of affinity in units of concentration, obtained from inhibition or displacement. The low end stands for a stronger hold on the target, the high end for a looser hold on the target. For `O=C(Cc1csc(N2CCOCC2)n1)N/N=C/c1ccc(O)c(O)c1O`, the Ki is 7.67 µM.

In the case of `CCC(=O)NC(c1ccc(C)cc1)c1cc([N+](=O)[O-])c2cccnc2c1O` (stereo not drawn), the inhibition constant Ki worked out at 11.4 µM. This Ki and that of the compound before are within 1.5-fold of each other.

Take `COCCCNC(=O)c1ccc2c3c(onc13)-c1ccccc1C2=O`: the Ki came to 1.48 µM.

In turn, `O=C(OCC1O[C@@H](OC(=O)c2cc(O)c(O)c(O)c2)[C@@H](OC(=O)c2cc(O)c(O)c(O)c2)[C@@H](OC(=O)c2cc(O)c(O)c(O)c2)[C@@H]1OC(=O)c1cc(O)c(O)c(O)c1)c1cc(O)c(O)c(O)c1` (stereo partly drawn) had a Ki of 0.37 µM.

As for `O=C(O[C@@H]1OC2COC(=O)c3cc(O)c(O)c(O)c3-c3c(cc(O)c(O)c3O)C(=O)O[C@@H]([C@H]1O)[C@@H]2O)c1cc(O)c(O)c(O)c1`, the Ki is 0.98 µM. Compared with the last compound, the Ki is about 2.6-fold higher.

`O=[N+]([O-])c1ccc(Sc2cccc[n+]2[O-])c2nonc12`: the Ki worked out at 4.06 µM.

On to `O=C1OCC2OC(O)C(O)C(O)C2OC(=O)c2cc(O)c(O)c(O)c2-c2c(O)c(O)c3oc(=O)c4c(c(O)c(O)c5oc(=O)c2c3c54)-c2c1cc(O)c(O)c2O` (stereo not drawn), for which the Ki was found to be 1.75 µM.

In turn, `CCCNC(=O)Cn1sc2nc(C)cc(C)c2c1=O` had a Ki of 4.08 µM. This Ki lies about 2.3-fold higher than the previous one.

In turn, `CN(C)[C@@H]1C(=O)C(C(=O)NCN2CCCC2)=C(O)[C@@]2(O)C(=O)C3=C(O)c4c(O)cccc4[C@@](C)(O)C3CC12` (stereo partly drawn) came in with a Ki of 3.7 µM.

Take `CCNc1ccc2noc3c2c1C(=O)c1ccccc1-3`: the Ki was found to be 22.2 µM. This Ki is about 6-fold higher than that of the compound before.

Turning to `O=C(COc1ccccc1C(=O)N/N=C\c1ccc(O)c(O)c1)N/N=C/c1ccc(O)c(O)c1`, the inhibitory constant (Ki) amounted to 1.94 µM.

In turn, `CC(=O)N(O)CCCCCNC(=O)CCC(=O)N(O)CCCCCNC(=O)CCC(=O)N(O)CCCCCN` yielded a Ki of 1.05 µM.

`O=c1c2ccccc2sn1-c1ccc(S(=O)(=O)N2CCCC2)cc1` came in with a Ki of 0.53 µM.

In the case of `CN1CCN(C2=C(Cl)C(=O)C(c3cnc(N4CCCCC4)s3)=C(Cl)C2=O)CC1`, the Ki turned out to be 0.15 µM.

With `COc1ccc(C2=CC(=O)C=CC2=O)cc1`, the Ki came out at 8.17 µM.

For the compound `CCOc1ccccc1-c1c2cc(O)c(=O)cc-2oc2cc(O)c(O)cc12`, the Ki stood at 6.17 µM.

Take `O=C1CCC(=O)N(O)CCCCCNC(=O)CCC(=O)N(O)CCCCCNC(=O)CCC(=O)N(O)CCCCCN1`: the Ki was 2.01 µM.

On to `Nc1c(C(=O)NCC2CCCO2)sc2nc3c(c(-c4ccco4)c12)CC/C3=C\c1ccco1` (stereo not drawn), for which the Ki amounted to 3.12 µM.

The compound `O=C(O)C[C@@H]1C(=O)O[C@@H]2C(COC(=O)c3cc(O)c(O)c(O)c3)O[C@@H](OC(=O)c3cc(O)c(O)c(O)c3)[C@@H](OC(=O)c3cc(O)c(O)c4c3[C@H]1[C@H](O)C(=O)O4)[C@H]2OC(=O)c1cc(O)c(O)c(O)c1` (stereo partly drawn) displayed a Ki of 0.51 µM.

`COc1ccc(OC)c(CCNC(=O)Cn2sc3nc(C)cc(C)c3c2=O)c1`: the Ki was 3.45 µM.

In turn, `CCN=c1scc(C)n1/N=C/c1ccc(O)c(O)c1O` yielded a Ki of 11.9 µM.

Regarding `CN(C)c1ncc(C2=C(Cl)C(=O)C(N3CCCC3)=C(Cl)C2=O)s1`, the Ki is 1.15 µM.

`CN=c1scc(C)n1/N=C/c1ccc(O)c(O)c1O` showed a Ki of 8.75 µM.

Compound `NS(=O)(=O)c1ccc(N/N=C/c2ccc(O)c(O)c2O)c([N+](=O)[O-])c1` gave a Ki of 1.66 µM. This Ki lies about 5.3-fold lower than the previous one.

As for `CC1(C)OC(=O)C(=Cc2ccc(-c3ccc(S(N)(=O)=O)cc3)o2)C(=O)O1`, the Ki came to 4.87 µM. This Ki is about 2.9-fold higher than that of the compound before.

In turn, `C/C(=N/NC(=O)c1cc(O)c(O)c(O)c1)c1ccc([N+](=O)[O-])cc1` had a Ki of 18.1 µM.

The compound `CCN(CC)S(=O)(=O)c1cccc(C(=O)N/N=C/c2ccc(O)c(O)c2O)c1` had a Ki of 3.3 µM.

Take `O=C1C(Cl)=C(N2CCCCC2)C(=O)C(Cl)=C1c1cnc(N2CCCCC2)s1`: the Ki stood at 0.71 µM.

On to `CCC(=O)NC1=C(Cl)C(=O)C(NC(=O)CC)=C(Cl)C1=O`, for which the Ki came out at 3.33 µM.
